Assay results: patent US10821115B2, “Compounds that inhibit Mcl-1 protein” (priority 2017, dated 2020)
Like-named read-outs stand apart in the source and are kept apart here.

Columns and labels:
[1] = system: human multiple myeloma cell line, OPM-2; experiment: Cell viability assay (OPM-2 10 FBS), CellTiter-Glo; assay type: cell-based
Outline: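 Steps: plate cells at 3000/well in 10% FBS growth medium, add serially diluted compound, incubate 16 h at 37 °C with 5% CO2, add detection reagent and read luminescence after 25 min. A 4-parameter logistic model gives IC50.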

[2] = target: recombinant human Mcl-1 (residues 171-327) / Bim interaction (Homo sapiens (Human), UniProt Q07820); experiment: biochemical; assay type: binding; settings: read-out: Mcl-1 HTRF IC50
[3] = Homo sapiens, OPM-2, 16 h, read-out: OPM-2 10% FBS IC50 IP, OPM-2 cells, 10% FBS, 16 h, CellTiter-Glo
[4] = TR-FRET, Mcl-1(171-327) / biotin-Bim (51-76)
[5] = 0.1 nM Mcl-1(171-327), 0.05 nM biotin-Bim (51-76)

Sequence of recombinant human Mcl-1 (residues 171-327) / Bim interaction (Q07820 171-327): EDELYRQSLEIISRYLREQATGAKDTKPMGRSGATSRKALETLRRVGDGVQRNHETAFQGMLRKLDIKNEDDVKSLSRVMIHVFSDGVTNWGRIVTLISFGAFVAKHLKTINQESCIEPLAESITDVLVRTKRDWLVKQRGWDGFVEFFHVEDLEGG

| SMILES | IC50 [1, 3] [nM] | IC50 [2, 4] [nM] | IC50 ([1]; Homo sapiens, OPM-2, 16 h, read-out: OPM-2 10% FBS IC50 IP, OPM-2 cells, 10% FBS, 16 h incubation) [nM] | IC50 [2, 5] [nM] | IC50 ([1]; read-out: OPM-2 10% FBS IC50 IP, OPM-2 cells, 10% FBS, 16 h incubation) [nM] |
| --- | --- | --- | --- | --- | --- |
| COc1ncccc1[C@@]1(O)/C=C/C[C@H](C)[C@@H](C)S(=O)(=O)NC(=O)c2ccc3c(c2)N(C[C@@H]2CC[C@H]21)C[C@@]1(CCCc2cc(Cl)ccc21)CO3 (single isomer, unassigned) [Example 100333] | 2170 | 2.1 | – | – | – |
| CCOC(=O)C(F)(F)[C@@]1(O)/C=C/C[C@H](C)[C@@H](C)S(=O)(=O)NC(=O)c2ccc3c(c2)N(C[C@@H]2CC[C@H]21)C[C@@]1(CCCc2cc(Cl)ccc21)CO3 [Example 100414, ethyl ((1S,3′R,6′R,7′R,8′E,11′S,12′R)-6-chloro-7′-hydroxy-11′,12′-dimethyl-13′,13′-dioxido-15′-oxo-3,4-dihydro-2H-spiro[naphthalene-1,22′-[20]oxa[13]thia[1,14]diazatetracyclo [14.7.2.0~3,6~.0~19,24~]pentacosa[8,16,18,24]tetraen]-7′-yl)(difluoro)acetate] | 1270 | 0.626 | – | – | – |
| COCCO[C@]1(CN2CCN3CCCC[C@@H]3C2)/C=C/C[C@H](C)[C@@H](C)S(=O)(=O)NC(=O)c2ccc3c(c2)N(C[C@@H]2CC[C@H]21)C[C@@]1(CCCc2cc(Cl)ccc21)CO3 [Example 152, (1S,3′R,6′R,7′R,8′E,11′S,12′R)-6-chloro-7′-(2-methoxyethoxy)-11′,12′-dimethyl-7′-((9aR)-octahydro-2H-pyrido[1,2-a]pyrazin-2-ylmethyl)-3,4-dihydro-2H,15′H-spiro[naphthalene-1,22′-[20]oxa[13]thia[1,14]diazatetracyclo [14.7.2.0~3,6~.0~19,24~]pentacosa[8,16,18,24]tetraen]-15′-one 13′,13′-dioxide] | – | – | 110 | 0.092 | – |
| CO[C@]1(CCN2CC(C)(N(C)C)C2)/C=C/C[C@H](C)[C@@H](C)S(=O)(=O)NC(=O)c2ccc3c(c2)N(C[C@@H]2CC[C@H]21)C[C@@]1(CCCc2cc(Cl)ccc21)CO3 [Example 100453, (1S,3′R,6′R,7′R,8′E,11′S,12′R)-6-chloro-7′-(2-(3-(dimethylamino)-3-methyl-1-azetidinyl)ethyl)-7′-methoxy-11′,12′-dimethyl-3,4-dihydro-2H,15′H-spiro[naphthalene-1,22′-[20]oxa[13]thia[1,14]diazatetracyclo [14.7.2.0~3,6~.0~19,24~]pentacosa[8,16,18,24]tetraen]-15′-one 13′,13′-dioxide] | 2930 | 0.927 | – | – | – |
| CO[C@]1(CN2CCN3CCCC[C@@H]3C2)/C=C/C[C@H](C)[C@@H](C[C@H](C)O)S(=O)(=O)NC(=O)c2ccc3c(c2)N(C[C@@H]2CC[C@H]21)C[C@@]1(CCCc2cc(Cl)ccc21)CO3 (single isomer, unassigned) [Example 362] | – | – | – | 0.061 | 58 |
| CC[C@@H]1CCCC[C@@](O)(CO)[C@@H]2CC[C@H]2CN2C[C@@]3(CCCc4cc(Cl)ccc43)COc3ccc(cc32)C(=O)NS1(=O)=O [Example 100035, (1S,3′R,6′R,7′S,12′R)-6-chloro-12′-ethyl-7′-hydroxy-7′-(hydroxymethyl)-3,4-dihydro-2H,15′H-spiro[naphthalene-1,22′-[20]oxa[13]thia[1,14]diazatetracyclo [14.7.2.0~3,6~.0~19,24~]pentacosa[16,18,24]trien]-15′-one 13′,13′-dioxide] | 1470 | 0.601 | – | – | – |
| C[C@@H]1[C@@H](C)CCC[C@@]2(OCCS2)[C@@H]2CC[C@H]2CN2C[C@@]3(CCCc4cc(Cl)ccc43)COc3ccc(cc32)C(=O)NS1(=O)=O [Example 100115, (1S,3′R,6′R,7′S,11′S,12′R)-6-chloro-11′,12′-dimethyl-3,4-dihydro-2H,15′H-dispiro[naphthalene-1,22′-[20]oxa[13]thia[1,14]diazatetracyclo [14.7.2.0~3,6~.0~19,24~]pentacosa[16,18,24]triene-7′,2″-[1,3]oxathiolan]-15′-one 13′,13′-dioxide] | 2840 | 4.49 | – | – | – |
